Test systems include A498 renal; HOP-92 NSCLC; HT29 colon; MALME-3M melanoma; MDA-N; NCI-H226 lung; NCI-H460 lung; NCI/ADR-RES ovarian; SK-MEL-5 melanoma; UACC-62 melanoma.
Assay in all cases: NCI tumour cell line growth inhibition, 48 h

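Interpolation was linear, between the two tested concentrations surrounding the appropriate level; five concentrations were tested over 48 hours in 96-well plates. The concentration for full growth arrest is given as TGI.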

`COc1ccc(C2=Nn3c(C)nnc3S/C2=C\c2ccc(-c3ccc([N+](=O)[O-])cc3)o2)cc1`: the TGI with A498 renal is 89.8 µM; in the assay on HOP-92 NSCLC it was 62.2 µM; with HT29 colon it was 43 µM; in the assay on MALME-3M melanoma, 86.3 µM; with MDA-N it was 29.8 µM; in the assay with NCI-H226 lung, 46.2 µM. Besides, the TGI was determined as 39.5 µM in the assay on NCI-H460 lung, 23.2 µM with NCI/ADR-RES ovarian, 34.4 µM in the assay with SK-MEL-5 melanoma and 28.3 µM in the assay with UACC-62 melanoma.
For the compound `CCCCCC(=O)OC[n+]1ccc(-c2c(COC(=O)NC(C)C)c(COC(=O)NC(C)C)c3n2CCC3)cc1`, the TGI in the assay with A498 renal, in the assay with HOP-92 NSCLC, in the assay on HT29 colon, in the assay with MALME-3M melanoma, with MDA-N and with NCI-H226 lung was greater than 100 µM in each case. The TGI with NCI-H460 lung, in the assay on NCI/ADR-RES ovarian, with SK-MEL-5 melanoma and with UACC-62 melanoma was greater than 100 µM each time.

These data come from PubChem BioAssay (NCI).
